The text below walks through data of PMC12434668 (Journal of Medicinal Chemistry, 2025).

Several values for one entry are separate records, joined by “and”; a condition that tells them apart may be missing. Identical values can stand only once. Like-named read-outs stand apart in the source and are kept apart here. A value given as a limit tells only on which side of the number the result lay.

The test system of one data set is A427 cells. Put plainly: In vitro proliferation assay (CellTiter-Glo), A427. It is filed as cell-based. The conditions noted are these: Homo sapiens, A-427; A427 cell line; average of at least n = 2, triplicate. The method, then:
(§1) NCI-H929, A427, and K562 cell lines were obtained from ATCC. NCI-H929 cells were cultured in RPMI1640 (ATCC-formulated, Catalog No. 30-2001) + 10% fetal calf serum (FCS, GIBCO BRL, Cat. No. 26140) + 0.05 mM mercaptoethanol. A-427 cells were cultured in RPMI1640 (ATCC-formulated, Catalog No. 30-2001) + 10% fetal calf serum (FCS, GIBCO BRL, Cat. No. 26140). K562 cell lines were cultured in Iscove’s Modified Dulbecco Medium (Gibco-formulated, purchased from Thermo-Fisher, Cat. No. 12440-053) + 10% fetal bovine serum (FBS, Sigma-Aldrich, F2442). All cell lines were cultured at 37 °C with 5% CO2 in a humidified incubator and have been regularly tested negatively for mycoplasm contamination.
(§2) Cells were seeded at 750–1500 cells per well (depending on growth kinetics) in 384-well plates (Corning, Catalog No. 3707) or at 3000 cells per well in 96-well plates in the respective growth medium and allowed to settle overnight. Suspension cells were plated immediately before compound addition. Adherent cell lines were incubated overnight at 37 °C in a tissue culture incubator prior to compound addition. Compounds were added in triplicates using an HP D300e Digital Dispenser (Hewlett-Packard) or manually at the concentrations indicated and total volumes were normalized using DMSO backfill, with final DMSO concentration of 0.5%. Control wells were treated with DMSO only. Following incubation for 72 or 96 h, a Cell Titer-Glo assay was conducted following the manufacturer recommendations (Promega, G9243) and luminescence was measured using a Victor X5 (PerkinElmer) or a Cytation 3 (Biotek) plate reader. % Viability was defined as relative luminescence units (RLU) of each well divided by the RLU of cells on day 0. Four parameter sigmoidal dose–response curves were generated and IC50 values were determined using XLFit (IDBS) software (eq 205) or in-house software. Drug combination experiments were performed in 96-well or 384-well format and drug synergy was determined using the BLISS model (PMID: 26171228).

Data set [1] relates to caspase 3/7 in H929 cells. Nature of the data set: Caspase 3/7 induction assay (Caspase-Glo), H929. Particulars: compound treatment for 3 h; for EC50: Homo sapiens, NCI-H929. It is filed as cell-based. How it is done: (§3) Cells were treated with a 10-point compound titration and incubated at 37 °C for 3 h.
Data set [2] relates to caspase 3/7 in A427 cells. Nature of the data set: Caspase 3/7 induction assay (Caspase-Glo), A427. It is filed as cell-based. The conditions noted are these: compound treatment for 3 h; for EC50: Homo sapiens, A-427. The method, then: as §3
The test system of data set [3] is caspase 3/7 in K562 cells. Nature of the data set: Caspase 3/7 induction assay (Caspase-Glo), K562. It is filed as cell-based. The conditions noted are these: compound treatment for 3 h; for EC50: Homo sapiens, K562. The method, then: as §3
Another data set concerns the target T1, Mcl-1 (Homo sapiens, UniProt Q07820).
T1 construct: Briefly, a previously reported construct was subcloned into an expression vector (pDEST-HisMBP); MBP (from vector pDEST-HisMBP); made in house; host or cells: Escherichia coli BL21 CodonPlus (DE3) RIL
Put plainly: TR-FRET binding assay (FITC-Bak peptide competition). From the text: Protein preparation was described previously. Briefly, a previously reported construct was subcloned into an expression vector (pDEST-HisMBP) expressed in Escherichia coli BL21 CodonPlus (DE3) RIL (Stratagene) and purified through nickel-column and size-exclusion chromatography sequentially.
Mixtures containing vehicle without compound served as a negative control, while mixtures containing no protein served as a positive control. […] Two or more repeats were obtained and average K i values are reported.

The subject of the next data set is NCI-H929 cells. Nature of the data set: In vitro proliferation assay (CellTiter-Glo), H929. It is filed as cell-based. Particulars: Homo sapiens, H929 cell line, average of at least n = 2, triplicate. The method, then: as §1, §2
(In general: In ATP-based viability assays light output follows the ATP content of the culture.)

For the next data set, the system named is K562 cells. Nature of the data set: In vitro proliferation counterscreen, Mcl-1 insensitive K562. It is filed as cell-based. The conditions noted are these: Homo sapiens; Mcl-1 insensitive K562; top concentration tested 12.5 µM. How it is done: NCI-H929, A427, and K562 cell lines were obtained from ATCC.
Suspension cells were plated immediately before compound addition. Adherent cell lines were incubated overnight at 37 °C in a tissue culture incubator prior to compound addition. Compounds were added in triplicates using an HP D300e Digital Dispenser (Hewlett-Packard) or manually at the concentrations indicated and total volumes were normalized using DMSO backfill, with final DMSO concentration of 0.5%. Control wells were treated with DMSO only. Following incubation for 72 or 96 h, a Cell Titer-Glo assay was conducted following the manufacturer recommendations (Promega, G9243) and luminescence was measured using a Victor X5 (PerkinElmer) or a Cytation 3 (Biotek) plate reader. % Viability was defined as relative luminescence units (RLU) of each well divided by the RLU of cells on day 0.

Data set [4] can be described thus: Mouse pharmacokinetic analyses (i.v. and oral). It is filed as in vivo. The conditions noted are these: plasma, iv. The method, then: For PK analysis, mice were administered intravenously or orally with compound formulated in 10% ethanol and 10% Cremophor EL. Compound 13 dosing was also screened with 20% Phosphal IPG, 20% Phosphal MCT, 10% HP-β-CD, and 40% HP-β-CD. Plasma samples were obtained at predefined time points and compound concentrations in plasma were measured by quantitative HPLC–MS/MS using an internal standard. Calibration and quality control samples were prepared using blank plasma from untreated animals. Samples were precipitated with acetonitrile and injected into a HPLC system (Agilent 1200). Separation was performed by gradients of 5 mmol/L ammonium acetate pH 5.0 and acetonitrile with 0.1% formic acid on a Luna C8 reversed-phase column with 2.5 μm particles (Phenomenex). The HPLC was interfaced by ESI operated in positive ionization mode to a triple quadrupole mass spectrometer (6500+ Triple Quad System, SCIEX) operated in multiple reaction monitoring mode. Chromatograms were analyzed with Analyst (SCIEX) and pharmacokinetic parameters were calculated by noncompartmental analysis using proprietary software.

[5] abbreviates: in the presence of 1% fetal bovine serum, average of at least n = 2, read-out: TRFRET, Mcl-1 Ki.
Where [6] appears, read: supplementary CSV, unit inferred, read-out: Ki TRFRET.
The mark [7] stands for this setting: dosed at 20 mg/kg, read-out: i.v. mouse CL.
The mark [8] stands for this setting: supplementary CSV, unit not given (Table 1: 20 mg/kg, 14 and 16 at 10 mg/kg), read-out: CL.
The mark [9] stands for this setting: dosed at 10 mg/kg, read-out: i.v. mouse CL.

T1 sequence (Q07820 whole entry): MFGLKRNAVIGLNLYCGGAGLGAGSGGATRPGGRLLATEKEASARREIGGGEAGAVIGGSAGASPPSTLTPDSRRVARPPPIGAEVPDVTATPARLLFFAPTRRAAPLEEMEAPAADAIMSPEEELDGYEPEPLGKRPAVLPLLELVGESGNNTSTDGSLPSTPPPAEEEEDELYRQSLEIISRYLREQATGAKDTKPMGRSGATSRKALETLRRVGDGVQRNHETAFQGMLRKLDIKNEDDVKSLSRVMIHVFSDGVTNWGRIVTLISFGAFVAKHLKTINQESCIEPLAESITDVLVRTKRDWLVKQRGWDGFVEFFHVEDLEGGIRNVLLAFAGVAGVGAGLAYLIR

For orientation: GI50 means the concentration that inhibits growth by half. Broadly, the EC50 is the midpoint of the concentration-response curve. A lower EC50 goes with greater potency. A word on the Ki: it is the dissociation constant of the complex between target and ligand, obtained from inhibition or displacement. As to `COc1c(C)cc2c3c1cc(C(=O)O)n3CCCOCc1nn(C)cc1-c1c(Cl)ccc3c(CCCOc4cc(C)c(Cl)c(C)c4)c4n(c13)[C@H](C)CN2C4=O` [Compound 18, (2^63^4 S a ,1^72^2 R a ,2^4 R)-2^7-Chloro-2^10-(3-(4-chloro-3,5-dimethylphenoxy)propyl)-1^4-methoxy-1^5,2^4,3^1-trimethyl-2^1-oxo-2^1,2^2,2^3,2^4-tetrahydro-1^1 H,3^1 H-5-oxa-2(2,6)-pyrazino [1,2-a]indola-1(7,1)-indola-3(4,3)-pyrazolacyclooctaphane-1^2-carboxylic Acid], the GI50 is 51 ± 20 nM in the data set on A427 cells, 35 ± 16 nM in the data set with NCI-H929 cells and greater than 12500 nM in the data set on K562 cells. For the same molecule, the EC50 was 36 nM in data set [1], 28 nM in data set [2] and greater than 3120 nM in data set [3]. Moreover, the “H929 Caspase 3/7 maximum activity, fold over vehicle (FoV)” value (“H929 Caspase 3/7 maximum activity, fold” below) in data set [1] is 17 fold. Also, the “A427 Caspase 3/7 fold over vehicle (FoV)” value in data set [2] worked out at 16 fold. In data set [3], the “K562 Caspase 3/7 fold over vehicle (FoV)” value stood at 1.4 fold. In addition, the figures for the Ki at Mcl-1 (setting [5]) and at Mcl-1 (setting [6]) were less than 0.08 nM and 0.04 nM, respectively. Further, the clearance in data set [4] (setting [7]) and in data set [4] (setting [8]) was 0.888 L/h/kg throughout.

With `COc1cc2c3c(cc(C(=O)O)n3CCCOCc3ncccc3-c3c(Cl)ccc4c(CCCOc5cc(C)c(Cl)c(C)c5)c5n(c34)[C@H](C)CN2C5=O)c1OC` [Compound 21, (2^63^4 S a ,1^72^2 R a ,2^4 R)-2^7-Chloro-2^10-(3-(4-chloro-3,5-dimethylphenoxy)propyl)-1^4,1^5-dimethoxy-2^4-methyl-2^1-oxo-2^1,2^2,2^3,2^4-tetrahydro-1^1 H-5-oxa-2(2,6)-pyrazino[1,2-a]indola-1(7,1)-indola-3(3,2)-pyridinacyclooctaphane-1^2-carboxylic Acid], the figures for the GI50 with A427 cells, in the data set on NCI-H929 cells and in the data set on K562 cells were 39 ± 7 nM, 17 ± 8 nM and greater than 12500 nM, respectively. In addition, the EC50 in data set [1] was 12 nM; in data set [2], 17 nM; in data set [3], greater than 3120 nM. Further, the “H929 Caspase 3/7 maximum activity, fold” value in data set [1] is on record as 16 fold. Besides, in data set [2], the “A427 Caspase 3/7 fold over vehicle (FoV)” value was found to be 14 fold. Besides, in data set [3], the “K562 Caspase 3/7 fold over vehicle (FoV)” value worked out at 1.4 fold. Moreover, the Ki on Mcl-1 (setting [5]) was less than 0.08 nM; on Mcl-1 (setting [6]) it was less than 0.02 nM. In addition, the clearance in data set [4] (setting [7]) and in data set [4] (setting [8]) was 0.48 L/h/kg in each case.

On to `COc1ccc2c3c1cc(C(=O)O)n3CCCOCc1nn(C)cc1-c1c(Cl)ccc3c(CCCOc4cc(C)c(Cl)c(C)c4)c4n(c13)[C@H](C)CN2C4=O` [Compound 16, (2^63^4 S a ,1^72^2 R a ,2^4 R)-2^7-Chloro-2^10-(3-(4-chloro-3,5-dimethylphenoxy)propyl)-1^4-methoxy-2^4,3^1-dimethyl-2^1-oxo-2^1,2^2,2^3,2^4-tetrahydro-1^1 H,3^1 H-5-oxa-2(2,6)-pyrazino[1,2-a]indola-1(7,1)-indola-3(4,3)-pyrazolacyclooctaphane-1^2-carboxylic Acid], for which the values for the GI50 with A427 cells, in the data set on NCI-H929 cells and with K562 cells were 45 ± 17 nM, 27 ± 3 nM and greater than 12500 nM, respectively. Further, the EC50 is 16 nM in data set [1], 24 nM in data set [2] and greater than 3120 nM in data set [3]. In data set [1], the “H929 Caspase 3/7 maximum activity, fold” value is 16 fold and 16 (16) fold. Also, the “A427 Caspase 3/7 fold over vehicle (FoV)” value in data set [2] is recorded as 15 fold. For the same molecule, the “K562 Caspase 3/7 fold over vehicle (FoV)” value in data set [3] was found to be 1.3 fold. Besides, the Ki on Mcl-1 (setting [5]) is less than 0.08 nM. Further, the clearance in data set [4] (setting [9]) and in data set [4] (setting [8]) was 1.04 L/h/kg in each case.

For the molecule `COc1c(OCC2CCOCC2)cc2c3c1cc(C(=O)O)n3CCCOCc1nn(C)cc1-c1c(Cl)ccc3c(CCCOc4cc(C)c(Cl)c(C)c4)c4n(c13)[C@H](C)CN2C4=O` [Compound 20, (2^63^4 S a ,1^72^2 R a ,2^4 R)-2^7-Chloro-2^10-(3-(4-chloro-3,5-dimethylphenoxy)propyl)-1^4-methoxy-2^4,3^1-dimethyl-2^1-oxo-1^5-((tetrahydro-2H-pyran-4-yl)methoxy)-2^1,2^2,2^3,2^4-tetrahydro-1^1 H,3^1 H-5-oxa-2(2,6)-pyrazino[1,2-a]indola-1(7,1)-indola-3(4,3)-pyrazolacyclooctaphane-1^2-carboxylic Acid], the GI50 in the data set with A427 cells was 55 ± 26 nM; with NCI-H929 cells, 31 ± 13 nM; with K562 cells it was greater than 12500 nM. The EC50 in data set [1] is 23 nM; in data set [2], 31 nM; in data set [3], greater than 3120 nM. In data set [1], the “H929 Caspase 3/7 maximum activity, fold” value is 16 fold. Also, the “A427 Caspase 3/7 fold over vehicle (FoV)” value in data set [2] amounted to 14 fold. In addition, the “K562 Caspase 3/7 fold over vehicle (FoV)” value in data set [3] was determined as 1.3 fold. Besides, the Ki at Mcl-1 (setting [5]) is 0.08 ± 0.02 nM. For the same molecule, the clearance in data set [4] (setting [7]) and in data set [4] (setting [8]) was 0.534 L/h/kg in each case.

For `Cc1cc2c3c(c1)cc(C(=O)O)n3CCCOCc1nn(C)cc1-c1c(Cl)ccc3c(CCCOc4cc(C)c(Cl)c(C)c4)c4n(c13)[C@H](C)CN2C4=O` [Compound 14, (2^63^4 S a ,1^72^2 R a ,2^4 R)-2^7-Chloro-2^10-(3-(4-chloro-3,5-dimethylphenoxy)propyl)-1^5,2^4,3^1-trimethyl-2^1-oxo-2^1,2^2,2^3,2^4-tetrahydro-1^1 H,3^1 H-5-oxa-2(2,6)-pyrazino[1,2-a]indola-1(7,1)-indola-3(4,3)-pyrazolacyclooctaphane-1^2-carboxylic Acid], the GI50 in the data set on A427 cells is 195 ± 14 nM; with NCI-H929 cells it was 64 ± 17 nM; in the data set on K562 cells, greater than 10200 nM. The EC50 is 45 nM in data set [1], 35 nM in data set [2] and greater than 3120 nM in data set [3]. Moreover, the “H929 Caspase 3/7 maximum activity, fold” value in data set [1] was found to be 17 fold. Also, the “A427 Caspase 3/7 fold over vehicle (FoV)” value in data set [2] came to 16 fold. For the same molecule, the “K562 Caspase 3/7 fold over vehicle (FoV)” value in data set [3] was 1.3 fold. The Ki on Mcl-1 (setting [5]) is less than 0.08 nM; on Mcl-1 (setting [6]), 0.03 nM. The clearance in data set [4] (setting [9]) and in data set [4] (setting [8]) was 0.504 L/h/kg in each case.
